For orientation: AC50 means the concentration giving half of the maximal activity seen.

The values below come from patent US11957680B2, “Pyruvate kinase activators for use in treating blood disorders” (Agios Pharmaceuticals, Inc., priority 2017, dated 2024).

Assay [1] deals with T1, wild type PKR (Homo sapiens, UniProt P30613). In words: PKR (wild type) enzyme AC50 assay, LDH/NADH-coupled, absorbance at 340 nm. The conditions noted are these: for AC50: Table 2, enzyme assay, read-out: PKR WT AC50; for EC50: Table 4, AC50, enzyme assay, read-out: PKR WT. It is filed as biochemical. The gist of the method:
(§1)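 Human PKR, wild type or K410E/R510Q mutant (40-400 ng/well), preincubated 60 min at room temperature with compound (11-point 3-fold series from 100 μM, 1% DMSO) in Tris pH 7.5/KCl/MgCl2 buffer with PEP 0.1-0.5 mM, 180 μM NADH, LDH. ADP (0.2-1.65 mM) started the reaction; LDH-coupled NADH consumption followed at 340 nm.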

The next assay addresses PKR K410E (Homo sapiens, UniProt P30613, K410E). Description: PKR mutant assay (K410E), AC50, LDH/NADH-coupled, absorbance at 340 nm. It is filed as biochemical. The conditions noted are these: for AC50: Table 2, enzyme assay; for EC50: Table 4, AC50, enzyme assay. The procedure, abridged: as §1
The target in another assay is PKR R510Q (Homo sapiens, UniProt P30613, R510Q). Description: PKR mutant assay (R510Q), AC50, LDH/NADH-coupled, absorbance at 340 nm. Format: biochemical. The following applies: for AC50: read-out: PK R510Q AC50; for EC50: Table 4, AC50, enzyme assay, read-out: PK R510Q. The procedure, abridged:
as §1

The target of assay [2] is T1, wild type PKR. In words: Cell based ATP assay in purified red blood cells (Cell-Titer-Glo). On the set-up: endogenous in cells; host or cells: purified red blood cells from healthy volunteers. The following applies: overnight at 37° C., ATP levels; for AC50 / Cell based ATP assay AC50: Table 2, RBCs; for EC50: Table 4, AC50, RBCs. The procedure, abridged: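 RBCs from healthy human donors' K2EDTA blood were leukocyte-depleted by filtration and resuspended in AGAM (PBS, 1% glucose, adenine, mannitol). Cells at 1×10^7 cells/mL were incubated overnight at 37 °C with serially diluted compound at 0.1% DMSO, and ATP was read by Cell-Titer-Glo luminescence.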

T1 sequence (P30613 whole entry): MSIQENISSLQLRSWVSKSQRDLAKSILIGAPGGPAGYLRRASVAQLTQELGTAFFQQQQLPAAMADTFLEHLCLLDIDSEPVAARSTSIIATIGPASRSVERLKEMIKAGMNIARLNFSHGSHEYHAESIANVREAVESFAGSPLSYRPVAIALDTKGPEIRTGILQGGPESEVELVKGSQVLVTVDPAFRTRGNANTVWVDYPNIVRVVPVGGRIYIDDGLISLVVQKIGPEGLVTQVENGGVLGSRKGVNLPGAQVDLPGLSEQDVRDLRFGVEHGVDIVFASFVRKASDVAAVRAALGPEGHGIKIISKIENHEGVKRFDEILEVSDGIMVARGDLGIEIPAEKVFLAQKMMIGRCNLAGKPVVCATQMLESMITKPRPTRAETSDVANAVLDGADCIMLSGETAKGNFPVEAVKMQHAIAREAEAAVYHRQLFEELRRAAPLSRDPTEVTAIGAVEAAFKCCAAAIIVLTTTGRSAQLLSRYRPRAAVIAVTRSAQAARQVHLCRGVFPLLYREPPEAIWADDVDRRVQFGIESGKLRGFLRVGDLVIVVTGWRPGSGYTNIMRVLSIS
Chain of PKR R510Q (P30613 whole entry R510Q): as the sequence (P30613 whole entry) above, with R510Q counted along it
Chain of PKR K410E (P30613 whole entry K410E): as the sequence (P30613 whole entry) above, with K410E counted along it

Take `CC(O)c1cccc(Cn2ncc3c4sc([S+](C)[O-])nc4n(C)c3c2=O)c1` (stereo not drawn) [Compound 88]: the concentration at half-maximal activity (AC50) on wild type PKR [1] was < 300 nM; on PKR K410E, 301 to 800 nM; on PKR R510Q (Table 2, enzyme assay), 301 to 800 nM; at wild type PKR [2] it was ≤ 1000 nM.

With `Cc1nc2c(s1)c1cnn(Cc3ccc4[nH]c(=O)[nH]c4c3)c(=O)c1n2C` [Compound 61], the concentration at half-maximal activity (AC50) on wild type PKR [1] was > 800 nM; at PKR K410E it was > 800 nM; on PKR R510Q (Table 2, enzyme assay), > 800 nM. In addition, the “Cell based ATP assay AC50” value on wild type PKR [2] is “No Fit”.

On to `CSc1nc2c(s1)c1cnn(Cc3ccc(S(N)(=O)=O)cc3)c(=O)c1n2C` [Compound 116], for which the AC50 at wild type PKR [1] was > 800 nM; at PKR K410E, > 800 nM; on PKR R510Q (Table 2, enzyme assay), > 800 nM. In addition, the “Cell based ATP assay AC50” value at wild type PKR [2] is listed as “No Fit”.

Take `COc1cccc(Cn2ncc3c4sc(CC5CCCCC5)nc4n(C)c3c2=O)c1` [Compound 50]: the AC50 on wild type PKR [1] is > 800 nM; at PKR K410E, > 800 nM; at PKR R510Q (Table 2, enzyme assay) it was > 800 nM. For the same compound, at wild type PKR [2], the “Cell based ATP assay AC50” value is listed as “No Fit”.

As for `Cn1c2nc(Cc3nc[nH]n3)sc2c2cnn(Cc3cccc4[nH]ncc34)c(=O)c21` [Compound 230], the EC50 on wild type PKR [1] was < 300 nM; on PKR K410E it was < 300 nM; on PKR R510Q it was < 300 nM; on wild type PKR [2], ≤ 1000 nM.

As for `Cc1nc2c(s1)c1cnn(CO)c(=O)c1n2C` [Compound 21], the AC50 on wild type PKR [1] and at PKR K410E was > 800 nM throughout. The “PK R510Q AC50” value on PKR R510Q (Table 2, enzyme assay) is listed as “No Fit”. Also, the “Cell based ATP assay AC50” value at wild type PKR [2] is on record as “No Fit”.

Turning to `COc1cccc(Cn2ncc3c4sc(I)nc4n(C)c3c2=O)c1` [Compound 40], the concentration at half-maximal activity (AC50) on wild type PKR [1] is 301 to 800 nM; on PKR K410E, 301 to 800 nM; at PKR R510Q (Table 2, enzyme assay), < 300 nM; on wild type PKR [2] it was > 1000 nM.

Take `Cn1c2nc(Cc3cccc(N)n3)sc2c2cnn(Cc3cccc4[nH]ncc34)c(=O)c21` [Compound 276]: the EC50 on wild type PKR [1] was < 300 nM; at PKR K410E, < 300 nM; on PKR R510Q it was < 300 nM; on wild type PKR [2], ≤ 1000 nM.

Consider `CNCc1nc2c(s1)c1cnn(Cc3cccc4[nH]ncc34)c(=O)c1n2C` [Compound 125], for which the AC50 at wild type PKR [1] was > 800 nM; on PKR K410E it was > 800 nM; at PKR R510Q (Table 2, enzyme assay) it was 301 to 800 nM; on wild type PKR [2], > 1000 nM.

Take `Cn1ccc(CCn2ncc3c4sc(Cc5cc[nH]n5)nc4n(C)c3c2=O)n1` [Compound 392]: the EC50 was < 300 nM on wild type PKR [1], < 300 nM on PKR K410E, < 300 nM at PKR R510Q and ≤ 1000 nM on wild type PKR [2].

In the case of `Cc1nc2c(s1)c1cnn(Cc3ccc(N)cc3)c(=O)c1n2C` [Compound 49], the half-maximal activity concentration (AC50) is > 800 nM at wild type PKR [1]; > 800 nM at PKR K410E; > 800 nM on PKR R510Q (Table 2, enzyme assay); > 1000 nM on wild type PKR [2].

`COc1cccc(Cn2ncc3c4sc(CO)nc4n(C)c3c2=O)c1` [Compound 51]: the AC50 was < 300 nM at wild type PKR [1]; < 300 nM on PKR K410E; < 300 nM on PKR R510Q (Table 2, enzyme assay); ≤ 1000 nM on wild type PKR [2].

Regarding `Cn1c2nc(SCc3ccccc3)sc2c2cnn(Cc3cccc4[nH]ncc34)c(=O)c21` [Compound 121], the AC50 on wild type PKR [1] is 301 to 800 nM; at PKR K410E, > 800 nM; on PKR R510Q (Table 2, enzyme assay), 301 to 800 nM; on wild type PKR [2] it was > 1000 nM.

Consider `COc1cccc(Cn2ncc3c4sc(Sc5ccccc5)nc4n(C)c3c2=O)c1` [Compound 34], for which the half-maximal activity concentration (AC50) at wild type PKR [1] is < 300 nM; on PKR K410E it was < 300 nM; on PKR R510Q (Table 2, enzyme assay), < 300 nM; on wild type PKR [2] it was ≤ 1000 nM.

Take `Cn1c2nc(Cc3n[nH]cc3Cl)sc2c2cnn(Cc3cccc4[nH]ncc34)c(=O)c21` [Compound 244]: the EC50 at wild type PKR [1] is < 300 nM; at PKR K410E, < 300 nM; on PKR R510Q, < 300 nM; at wild type PKR [2], ≤ 1000 nM.

As to `Cn1c2nc(Cc3cc[nH]n3)sc2c2cnn(Cc3n[nH]c4cccnc34)c(=O)c21` [Compound 379], the EC50 on wild type PKR [1] was < 300 nM; on PKR K410E, < 300 nM; at PKR R510Q it was < 300 nM; on wild type PKR [2], ≤ 1000 nM.

Turning to `Cn1c2nc(Cc3cnco3)sc2c2cnn(Cc3cccc4[nH]ncc34)c(=O)c21` [Compound 240], the EC50 at wild type PKR [1] was 301 to 800 nM; at PKR K410E, > 800 nM; on PKR R510Q it was 301 to 800 nM; on wild type PKR [2] it was ≤ 1000 nM.

For `COC(=O)C(c1ccccc1)c1nc2c(s1)c1cnn(Cc3cccc4[nH]ncc34)c(=O)c1n2C` (stereo not drawn) [Compound 134], the AC50 on wild type PKR [1] was > 800 nM; at PKR K410E, < 300 nM; at PKR R510Q (Table 2, enzyme assay), 301 to 800 nM; on wild type PKR [2], > 1000 nM.
